Assay results: ChEMBL document CHEMBL6127060, “Bioisosteric replacement of the carboxylic acid group in Hepatitis-C virus NS5B thumb site II inhibitors: phenylalanine derivatives” (Eur J Med Chem, 2024)

Tests used:
[1] = Cytotoxicity against human Huh-7 cells assessed as cell viability; assay type: toxicity, cell-based
Hepatitis C virus [2] = experiment: Antiviral activity against Hepatitis C virus genotype 1b infected in human Huh-7 cells assessed as inhibition of viral growth incubated for 3 days; assay type: functional, organism-based, Hepacivirus hominis; conditions: Huh-7, 72 h
[3] = biological target: Hepatitis C virus NS5B RNA-dependent RNA polymerase (Hepatitis C virus, UniProt Q8JXU8); experiment: Inhibition of Hepatitis C virus NS5B polymerase; parameters: species or system Hepacivirus hominis
Hepatitis C virus [4] = experiment: Antiviral activity against Hepatitis C virus; assay type: functional, organism-based, Hepacivirus hominis

Hepatitis C virus NS5B RNA-dependent RNA polymerase, sequence (Q8JXU8 whole entry): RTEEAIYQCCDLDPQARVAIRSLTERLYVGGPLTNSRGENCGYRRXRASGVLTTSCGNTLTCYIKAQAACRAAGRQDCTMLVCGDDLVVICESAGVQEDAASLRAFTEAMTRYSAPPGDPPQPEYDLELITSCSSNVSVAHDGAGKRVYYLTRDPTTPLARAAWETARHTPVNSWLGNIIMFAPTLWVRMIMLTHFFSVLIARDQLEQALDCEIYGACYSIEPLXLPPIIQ

SMILES	CC50 [1] [µM]	EC50 (Hepatitis C virus [2]) [µM]	IC50 [3] [µM]	EC50 (Hepatitis C virus [4]) [µM]
N/C(=N\O)C(Cc1ccccc1)N(Cc1cccc(C(F)(F)F)c1)C(=O)c1ccc(Cl)cc1Cl (stereo not given)	11	3.91		
CC1=CC[C@H](C(=O)N(c2cc(C#CC(C)(C)C)sc2C(=O)O)[C@H]2CC[C@](O)(CO[C@H]3CCOC3)CC2)CC1 [RADALBUVIR]	> 50	0.052		
CC(C)(C)C(=O)OCn1c(C(Cc2ccccc2)N(Cc2cccc([N+](=O)[O-])c2)C(=O)c2ccc(Cl)cc2Cl)noc1=S (stereo not given)	> 50	> 50		
O=C(c1ccc(Cl)cc1Cl)N(Cc1cccc(F)c1)C(Cc1ccccc1)c1noc(=O)[nH]1 (stereo not given)	> 50	> 50		
O=C(O)[C@H](Cc1ccccc1)N(Cc1cccc(C(F)(F)F)c1)C(=O)c1ccc(Cl)cc1Cl			1.7	
CC(C)(C)C(=O)OCn1c(C(Cc2ccccc2)N(Cc2cccc(C(F)(F)F)c2)C(=O)c2ccc(Cl)cc2Cl)noc1=S (stereo not given)	> 50	> 50		
O=C(c1ccc(Cl)cc1Cl)N(Cc1cccc(Br)c1)C(Cc1ccccc1)c1noc(=O)[nH]1 (stereo not given)	> 50	> 50		
N/C(=N\O)C(Cc1ccccc1)N(Cc1cccc([N+](=O)[O-])c1)C(=O)c1ccc(Cl)cc1Cl (stereo not given)	18.2	11.3		
N#CC(Cc1ccccc1)N(Cc1cccc([N+](=O)[O-])c1)C(=O)c1ccc(Cl)cc1Cl (stereo not given)	> 50	5.19		
N/C(=N\O)C(Cc1ccccc1)N(Cc1cccc(F)c1)C(=O)c1ccc(Cl)cc1Cl (stereo not given)	> 50	> 50		
N#Cc1cccc(CN(C(=O)c2ccc(Cl)cc2Cl)[C@@H](Cc2ccccc2)C(=O)O)c1			0.8	
O=C(c1ccc(Cl)cc1Cl)N(Cc1cccc([N+](=O)[O-])c1)C(Cc1ccccc1)c1noc(=O)[nH]1 (stereo not given)	> 50	> 50		
O=C(c1ccc(Cl)cc1Cl)N(Cc1cccc(C(F)(F)F)c1)C(Cc1ccccc1)c1noc(=S)[nH]1 (stereo not given)	> 50	> 50		
O=C(O)[C@H](Cc1ccccc1)N(Cc1cccc([N+](=O)[O-])c1)C(=O)c1ccc(Cl)cc1Cl			0.7	
O=C(c1ccc(Cl)cc1Cl)N(Cc1cccc(Br)c1)C(Cc1ccccc1)c1noc(=S)[nH]1 (stereo not given)	> 50	> 50		
N/C(=N\O)C(Cc1ccccc1)N(Cc1cccc(Br)c1)C(=O)c1ccc(Cl)cc1Cl (stereo not given)	16.1	6.36		
Cn1c(C(Cc2ccccc2)N(Cc2cccc(C(F)(F)F)c2)C(=O)c2ccc(Cl)cc2Cl)noc1=S (stereo not given)	> 50	8.09		
O=C(c1ccc(Cl)cc1Cl)N(Cc1cccc([N+](=O)[O-])c1)C(Cc1ccccc1)c1noc(=S)[nH]1 (stereo not given)	> 50	> 50		
N#CC(Cc1ccccc1)N(Cc1cccc(Br)c1)C(=O)c1ccc(Cl)cc1Cl (stereo not given)	> 50	> 50		
CC1CCC(C(=O)N(C)c2ccc(Oc3ccccc3C(F)(F)F)cc2C(=O)O)CC1 (stereo not given)			0.2	1.1
O=C(c1ccc(Cl)cc1Cl)N(Cc1cccc(C(F)(F)F)c1)C(Cc1ccccc1)c1noc(=O)[nH]1 (stereo not given)	49.2	> 50		
N#CC(Cc1ccccc1)N(Cc1cccc(C(F)(F)F)c1)C(=O)c1ccc(Cl)cc1Cl (stereo not given)	> 50	> 50		
N#CC(Cc1ccccc1)N(Cc1cccc(F)c1)C(=O)c1ccc(Cl)cc1Cl (stereo not given)	> 50	3.72		
O=C(c1ccc(Cl)cc1Cl)N(Cc1cccc(F)c1)C(Cc1ccccc1)c1noc(=S)[nH]1 (stereo not given)	> 50	> 50		
